# In publication PMC2441954, “Phase I pharmacokinetic and pharmacodynamic study of the prenyl transferase inhibitor AZD3409 in patients with advanced cancer” (British Journal of Cancer, 2008):
# Where two headings read alike, the source gives them in different places.
# Experiment: Plasma pharmacokinetics (LC-MS/MS, noncompartmental) in phase I patients
# Format: in vivo, human
# Conditions: for Cmax / AUC: human, plasma, oral; for AUC: read-out: AUC0−τ
# Method: Pharmacokinetic studies were performed in all patients. Ethylenediaminetetraacetic acid blood samples were collected during the first cycle: on day 1 before the first drug intake and 0.5, 1, 2, 4, 6, 8, 12 and 24 h after administration; on days 3, 8 and 15 before the morning drug intake and 2 h after administration; and on day 22 before the morning drug intake and 0.5, 1, 2, 4, 6, 8, 12 and 24 h after administration. Samples were immediately put on ice and centrifuged at 4°C for 10 min at 1500 g. The resulting plasma was stored at −70°C until analysis. Plasma samples of the last three patients were not measured as the study was stopped before analysis.
# The total plasma concentrations of AZD3409 ester and AZD3409 acid were determined by LC–MS/MS. The plasma samples were treated with dithiothreitol to reduce any disulphide bonds. The sample pretreatment was based on protein precipitation with acidic acetonitrile. Isotopically labelled analogues were used as internal standards. The method has been validated regarding selectivity, accuracy, precision and stability in human plasma. The lower limit of quantification was 3 ng ml^−1 for both AZD3409 ester and AZD3409 acid, with a 50 μl sample volume.
# The following PK parameters were determined, either by direct observation or by noncompartmental analysis (WinNonlin, version 5.0.1; Pharsight, Mountain View, CA, USA): the minimal plasma concentration (Cmin), the maximal plasma concentration (Cmax), the area under the curve within one dosing interval (AUC0−τ) and total plasma clearance (Cl/F). Correlations between dose and Cmax levels and between dose and AUC0−τ were analysed on day 1 using the nonparametric Spearman's ρ (Rs) correlation test. Accumulation was tested with an exact Wilcoxon's rank paired signed test. Linear measures mixed effects models were constructed with SAS (SAS Institute Inc., Cary, NC, USA) to determine the effect of the dose on the trough plasma concentrations of both metabolites. The daily dose, time (days), gender and age were considered to be a fixed effect, and the patient variable was considered to be a random effect. Owing to the distribution of the trough plasma concentration log transformation was applied.
# [1] = 500 mg once daily, day 1, dose 500 (once daily), N=3, mean (SD)
# [2] = 500 mg once daily, day 22, dose 500 (once daily), N=2, absolute values
# [3] = 750 mg b.i.d., day 1, dose 750 b.i.d., N=8, mean (SD)
# [4] = 750 mg b.i.d., day 22, dose 750 b.i.d., N=3, mean (SD)
# [5] = 1000 mg once daily, day 1, dose 1000 (once daily), N=3, mean (SD)
# [6] = 1000 mg once daily, day 22, dose 1000 (once daily), N=3, mean (SD)
# [7] = 1250 mg b.i.d., day 1, dose 1250 b.i.d., N=6, mean (SD)
# [8] = 1250 mg b.i.d., day 22, dose 1250 b.i.d., N=4, mean (SD)
# [9] = 1500 mg b.i.d., day 1, dose 1500 b.i.d., N=2, absolute values
# [10] = 1750 mg b.i.d., day 1, dose 1750 b.i.d., N=4, mean (SD)
# [11] = 1750 mg b.i.d., day 22, dose 1750 b.i.d., N=1
smiles,measurement,setting,value
CSCC[C@H](NC(=O)c1cc(NC[C@@H]2C[C@H](S)CN2)ccc1CCc1ccc(F)cc1)C(=O)OC(C)C [AZD3409 ester],AUCester/AUCacid ratio,day 1,2.5
same,Spearman correlation (Rs) between dose and AUC,day 1,0.52
same,Spearman correlation (Rs) between dose and Cmax,day 1,0.43
same,AUCester/AUCacid ratio,day 22,2.0
same,Cl/F,"day 22, dose 500 (once daily), N=2, absolute values",[263–308] l h^−1
same,Cl/F,"day 22, dose 750 b.i.d., N=3, mean (SD)",309 (151) l h^−1
same,Cl/F,"day 22, dose 1000 (once daily), N=3, mean (SD)",319 (172) l h^−1
same,Cl/F,"day 22, dose 1250 b.i.d., N=4, mean (SD)",474 (231) l h^−1
same,Cl/F,"day 22, dose 1750 b.i.d., N=1",1145 L/h
same,Ratio AUC0−τ day 22/day 1,"dose 500 (once daily), N=2, absolute values",[1.42–8.31]
same,Ratio AUC0−τ day 22/day 1,"dose 750 b.i.d., N=3, mean (SD)",7.03 (8.46)
same,Ratio AUC0−τ day 22/day 1,"dose 1000 (once daily), N=3, mean (SD)",1.54 (0.86)
same,Ratio AUC0−τ day 22/day 1,"dose 1250 b.i.d., N=4, mean (SD)",1.28 (0.70)
same,Ratio AUC0−τ day 22/day 1,"dose 1750 b.i.d., N=1",0.97
same,Cmax,[1],82.1 ng/mL
same,AUC,[1],395 ng·h/mL
same,Cmax,[2],229 to 257 ng/mL
same,AUC,[2],1230 to 1460 ng·h/mL
same,Cmax,[3],245 ng/mL
same,AUC,[3],1070 ng·h/mL
same,Cmax,[4],298 ng/mL
same,AUC,[4],1720 ng·h/mL
same,Cmax,[5],318 ng/mL
same,AUC,[5],1540 ng·h/mL
same,Cmax,[6],296 ng/mL
same,AUC,[6],1930 ng·h/mL
same,Cmax,[7],338 ng/mL
same,AUC,[7],1780 ng·h/mL
same,Cmax,[8],366 ng/mL
same,AUC,[8],2120 ng·h/mL
same,Cmax,[9],227 to 315 ng/mL
same,AUC,[9],1460 to 1630 ng·h/mL
same,Cmax,[10],362 ng/mL
same,AUC,[10],1690 ng·h/mL
same,Cmax,[11],445 ng/mL
same,AUC,[11],1100 ng·h/mL
